From US20190209506A1, “METHODS OF REDUCING OR PREVENTING OXIDATION OF LDL OR LIPID MEMBRANES IN A SUBJECT IN NEED THEREOF” (Amarin Pharmaceuticals Ireland Limited, priority 2018, published 2019)
Values joined by “and” are separate entries in the source; they are usually repeats but may differ in a detail not shown here. Equal entries are not always repeated. Blank lines part the entries; values can stand above or below the molecule they belong to.

How the values were obtained:
[1] = Glucose- and peroxidation-induced cholesterol domain formation, small angle x-ray diffraction (Example 4); details: 1:30 drug-to-phospholipid, glucose 200 mg/dL
Experimental: Samples were shell-dried under nitrogen gas and placed under vacuum for 1 h to remove residual solvent. […] Lipid suspensions were then vortexed for 3 min at ambient temperature to form MLVs. […] Membrane lipid vesicles were oriented for x-ray diffraction analysis as described by others (e.g., Herbette et al., Biophys. […] Briefly, a 100 μL aliquot (containing 250 μg MLV) was aspirated from each sample and transferred to a Lucite® sedimentation cell fitted with an aluminum foil substrate upon which a given sample could be collected by centrifugation. Samples were then loaded into a Sorvall AH-629 swinging bucket rotor (DuPont Corp., Wilmington, Del.) and centrifuged at 35,000 g, 5° C., for 90 min. After centrifugal orientation, sample supernatants were aspirated and aluminum foil substrates, each supporting a single membrane pellet, were removed from the sedimentation cells. […] The d-space for any given membrane multibilayer is a measurement of the unit cell periodicity of the membrane lipid bilayer (e.g., the distance from the center of one lipid bilayer to the next including surface hydration), and is calculated from Bragg's Law, […], where h is the diffraction order, λ is the wavelength of the x-ray radiation (1.54 Å), d is the membrane lipid bilayer unit cell periodicity, and θ is the Bragg angle equal to one-half the angle between the incident beam and scattered beam. […]

[2] = system: human sdLDL; experiment: Copper-induced sdLDL oxidation, TBARS after 2 hr (Example 6); assay type: biochemical
Experimental: (§1) Venous blood was collected from healthy volunteers into vacutainer tubes containing sodium EDTA. Plasma was separated by centrifugation at 3000 g for 25 min at 4° C. and adjusted to a density of 1.020 g/mL with KBr. Triglyceride-rich lipoproteins (TGRL) and LDL fractions were then isolated by sequential centrifugation at 70,000 rpm at 4° C. in a Beckman LE-80 ultracentrifuge using a Beckman 50.4Ti rotor (Beckman Coulter, Inc., Fullerton, Calif.). The TGRL fraction (with a relative density of <1.020) was aspirated from the top of the centrifugate and discarded, leaving an LDL-enriched infranate (with a relative density of 1.020 to 1.063). The plasma LDL fraction was further fractionated into LDL1, LDL2, LDL3, and LDL4 (sdLDL) subfractions with relative densities of 1.020 to 1.035, 1.035 to 1.050, 1.050 to 1.063, and 1.063 to 1.075, respectively. The sdLDL subfraction was retained for additional experimentation. Plasma and lipoprotein fractions were maintained at 4° C. and protected from excessive exposure to light. Prior to oxidation experiments, EDTA was removed from the lipoprotein fraction using PD-10 desalting columns (GE Healthcare, Piscataway N.J.). After equilibration of the column with phosphate buffered saline (PBS), 2.5 mL of the lipoprotein fraction was loaded on the column and the flow-through discarded. The lipoprotein was then eluted with 3 mL of PBS. The LDL fractions were further diluted with PBS to obtain a 100 μg/mL apoB100 concentration.
LDL and sdLDL subfractions (0.6 mL each) were incubated with either 10 μL vehicle (ethanol) or 10 μL drug stock solution for 30 min to 1 hr at 37° C. Oxidation was initiated by the addition of 10 μM CuSO4. After 2 hr, 100 μL aliquots were removed from each subfraction and combined with 1.0 mL thiobarbituric acid (0.5%), 10 μL trichloroacetic acid (5%), 10 μL BHT (5 mg/mL in methanol), and 10 μL EDTA (5 mM). […]. Sample TBARS concentrations were determined spectrophotometrically by measuring sample absorbances against a standard curve derived from the hydrolysis of 1,1,3,3-tetramethoxypropane.

[3] = system: human LDL; experiment: Copper-induced oxidation of unfractionated LDL, TBARS after 2 hr (Example 6); assay type: biochemical
Experimental: as §1, with “Prior to oxidation experiments, EDTA was removed from the lipoprotein fraction using PD-10 desalting columns (GE Healthcare, Piscataway N.J.). After equilibration of the column with phosphate buffered saline (PBS), 2.5 mL of the lipoprotein fraction was loaded on the column and the flow-through discarded. The lipoprotein was then eluted with 3 mL of PBS. The LDL fractions were further diluted with PBS to obtain a 100 μg/mL apoB100 concentration.” left out
LDL and sdLDL subfractions (0.6 mL each) were incubated with either 10 μL vehicle (ethanol) or 10 μL drug stock solution for 30 min to 1 hr at 37° C. […] Sample TBARS concentrations were determined spectrophotometrically by measuring sample absorbances against a standard curve derived from the hydrolysis of 1,1,3,3-tetramethoxypropane.

[4] = system: human sdLDL; experiment: Copper-induced sdLDL oxidation, TBARS (Example 7); assay type: biochemical
Experimental: An experiment to study the antioxidant effect of EPA in LDL and small dense LDL (“sdLDL”) was performed. LDL and sdLDL were isolated from the plasma of healthy volunteers by iodixanol density gradient ultracentrifugation, and adjusted to a final apolipoprotein concentration of 2 mg/mL. […] Lipid oxidation was initiated with 10 μM CuSO4 and monitored by the colorimetric detection of thiobarbituric acid reactive substances (TBARS) for 1 hr. Vitamin E was also incubated with sample aliquots as a positive control.

[5] = system: human LDL; experiment: Copper-induced oxidation of unfractionated LDL, TBARS (Example 7); assay type: biochemical; details: 1 hour
Experimental: An experiment to study the antioxidant effect of EPA in LDL and small dense LDL (“sdLDL”) was performed. LDL and sdLDL were isolated from the plasma of healthy volunteers by iodixanol density gradient ultracentrifugation, and adjusted to a final apolipoprotein concentration of 2 mg/mL. […] Vitamin E was also incubated with sample aliquots as a positive control.

IC50 ([4]; 1 hr): ~2000 nM
Compound: CC/C=C\C/C=C\C/C=C\C/C=C\C/C=C\CCCC(=O)O [EPA, cis-5,8,11,14,17-eicosapentaenoic acid]
inhibition of relative cholesterol domain peak intensity ([1]; 96-hour time point, vs vehicle or vitamin E): more than 99% | reduction of TBARS levels compared to vehicle-treated controls ([2]; 10.0 μM): 57% | reduction of TBARS levels compared to vehicle-treated controls ([2]; lowest dose tested (1.0)): 13% | reduction of TBARS levels ([3]; highest concentration tested (10.0), unfractionated LDL): 17% | inhibition of sdLDL oxidation ([4]; 1.0 μM, 1 hr, vs vehicle): 19±8% | inhibition of TBARS formation / sdLDL oxidation ([4]; 10 μM, 1 hr, vs vehicle, 10 µM): 93±2% and 92±8% | effect on sdLDL oxidation compared to vehicle or DHA ([4]; 10.0 μM, after 4 hours): significantly inhibited sdLDL oxidation | inhibition of TBARS formation compared to vehicle-treated control ([5]; highest treatment concentration (10)): > 90%

Compound: Cc1c(C)c2c(c(C)c1O)CC[C@@](C)(CCC[C@H](C)CCC[C@H](C)CCCC(C)C)O2 [vitamin E, α-tocopherol, reference compound]
effect on cholesterol domain formation compared to control ([1]; any experimental time point): no significant effect on cholesterol domain formation | reduction of TBARS levels compared to vehicle-treated controls ([2]; 10.0 μM): 26% | effect on sdLDL oxidation ([2]; concentrations 1.0 μM to 10.0 μM): did not inhibit sdLDL oxidation except at the highest concentration | effect on LDL oxidation ([3]; 1.0 μM to 10.0 μM, data not shown): did not inhibit LDL oxidation at any concentration | effect on sdLDL oxidation compared to vehicle-treated controls ([4]; 10 μM, 1 hour): no significant effect on sdLDL oxidation | effect on unfractionated LDL oxidation ([5]; 10 μM): no significant effect on unfractionated LDL oxidation
